Legend:
Assay in all cases: relative viability (nuclei count vs DMSO), 5 days (fraction); higher = more cells survive
[1] = compound: O=C(C[C@H]1NCCC[C@@H]1O)Cn1cnc2cc(Br)c(Cl)cc2c1=O (racemic) [Halofuginone] + Cc1nc(Nc2ncc(C(=O)Nc3c(C)cccc3Cl)s2)cc(N2CCN(CCO)CC2)n1 [Dasatinib] (partner 0.075 µM)
Summary of the method: (§1)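 Lung cancer cell lines were seeded in 1536-well plates and dosed by pin tool the next day, with either a single drug or a fixed anchor-drug dose combined with five library-drug doses (not always all listed) spaced in √10 steps. Five days later, one step fixed the cells and stained their nuclei (final 0.05% Triton X-100, 1% formaldehyde, 1 ug/ml Hoechst), and nuclei were counted on 4× images. Relative viability is the nuclei count in treated wells divided by the count in vehicle wells, and each value is the median of duplicate plates.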

[2] = compound: COc1cc2c(Oc3ccc4[nH]c(C)cc4c3F)ncnc2cc1OCCCN1CCCC1 [Cediranib] + CC(=O)c1c(C)c2cnc(Nc3ccc(N4CCNCC4)cn3)nc2n(C2CCCC2)c1=O [Palbociclib] (partner 0.5 µM)
Summary of the method: as §1

[3] = compound: O=C(C[C@H]1NCCC[C@@H]1O)Cn1cnc2cc(Br)c(Cl)cc2c1=O (racemic) [Halofuginone] + Cc1nc(NC(=O)N2CCC[C@H]2C(N)=O)sc1-c1ccnc(C(C)(C)C(F)(F)F)c1 [Alpelisib] (partner 2 µM)
Summary of the method: as §1

[4] = compound: COc1cc2c(Oc3ccc4[nH]c(C)cc4c3F)ncnc2cc1OCCCN1CCCC1 [Cediranib] + CS(=O)(=O)CCNCc1ccc(-c2ccc3ncnc(Nc4ccc(OCc5cccc(F)c5)c(Cl)c4)c3c2)o1 [Lapatinib] (partner 2 µM)
Summary of the method: as §1

| Cell Line | relative viability ([1]; first compound 0.001 µM) | relative viability ([1]; first compound 0.003162 µM) | relative viability ([1]; first compound 0.01 µM) | relative viability ([1]; first compound 0.03162 µM) | relative viability ([1]; first compound 0.1 µM) | relative viability ([2]; first compound 0.04 µM) | relative viability ([2]; first compound 0.4 µM) | relative viability ([2]; first compound 1.265 µM) | relative viability ([2]; first compound 4 µM) | relative viability ([3]; first compound 0.001 µM) | relative viability ([3]; first compound 0.003162 µM) | relative viability ([3]; first compound 0.01 µM) | relative viability ([3]; first compound 0.03162 µM) | relative viability ([3]; first compound 0.1 µM) | relative viability ([4]; first compound 0.04 µM) | relative viability ([4]; first compound 0.4 µM) | relative viability ([4]; first compound 1.265 µM) | relative viability ([4]; first compound 4 µM) | relative viability ([2]; first compound 0.1265 µM) | relative viability ([4]; first compound 0.1265 µM) |
| --- | --- | --- | --- | --- | --- | --- | --- | --- | --- | --- | --- | --- | --- | --- | --- | --- | --- | --- | --- | --- |
| LCLC-97TM1 | 0.78 | 0.902 | 0.775 | 0.826 | 0.775 | 0.277 | 0.194 | 0.211 | 0.277 | 0.298 | 0.23 | 0.305 | 0.209 | 0.199 | 1.03 | 0.976 | 1.15 | 1.01 |  |  |
| NCI-H838 | 0.312 | 0.307 | 0.339 | 0.228 | 0.17 | 0.229 | 0.218 | 0.181 | 0.214 | 1.05 | 0.961 | 1.05 | 0.566 | 0.111 | 1.02 | 0.914 | 0.737 | 1.11 | 0.228 | 0.796 |
| NCI-H520 | 0.215 | 0.173 | 0.175 | 0.16 | 0.17 | 0.262 | 0.175 | 0.162 | 0.179 | 0.792 | 0.767 | 0.911 | 0.761 | 0.295 | 0.977 | 0.605 | 0.759 | 0.785 | 0.22 |  |
| NCI-H2347 | 0.299 | 0.308 | 0.334 | 0.281 | 0.194 | 0.497 | 0.4 | 0.4 | 0.417 | 1.07 | 1.07 | 1.09 | 1.02 | 0.876 | 1.07 | 0.916 | 0.909 | 0.964 | 0.417 | 0.512 |
| NCI-H1944 | 0.229 | 0.236 | 0.209 | 0.207 | 0.155 | 0.331 | 0.315 | 0.346 | 0.313 | 0.829 | 0.85 | 0.827 | 0.839 | 0.68 | 0.969 | 0.78 | 0.705 | 0.908 | 0.386 | 0.8 |
| NCI-H2405 | 0.21 | 0.246 | 0.241 | 0.209 | 0.223 | 0.532 | 0.516 | 0.546 | 0.514 | 0.94 | 0.939 | 0.839 | 0.757 | 0.546 | 1.02 | 1.11 | 1.13 | 1.09 | 0.574 | 1.13 |
| HCC-15 | 0.645 | 0.677 | 0.572 | 0.593 | 0.322 | 0.69 | 0.681 | 0.751 | 0.678 | 0.847 | 0.903 | 0.861 | 0.888 | 0.683 | 0.898 | 0.806 | 1.01 | 0.897 |  |  |
